One experiment concerns IL-8. The experiment in a line: IL-8 production by NHEKs in the inflammatory state (PMA), ELISA. Type of experiment: cell-based, human. The following applies: PMA 10 ng/ml 24 h, compounds 50 μM, dexamethasone 10 μM, relative to PMA induced control (100%). The method, then: (§1) The study was carried out on Normal Human Epidermal Keratinocytes (NHEKs) (Lonza, CC-2507, origin: foreskin) in monolayer culture in Epilife medium (Invitrogen, M-EPI-500-A) containing the components of the Human Keratinocyte Growth Supplement (HKGS) mixture (Invitrogen, S-001-K) added separately, except hydrocortisone having anti-inflammatory properties.
For the quantification of IL-8 and PGE2, the inflammatory state of the NHEKs in culture was induced by treatment with PMA (phorbol myristate acetate/10 ng/ml/H2O) for 24 h. Induction of IL-6 was achieved by treatment with PMA (10 ng/ml/H2O) combined with calcium ionophore A23187 (2 μM/DMSO) in medium containing calcium at a concentration of 0.8 mM. […]
(§2) Quantification of the various inflammatory mediators was carried out with specific kits, based on a standard curve, according to the instructions provided by the kits' suppliers, R&D Systems and Cayman Chemical.
Before induction of the inflammatory state, the NHEKs were treated with the compounds and reference molecules for 2 h. The inflammatory state was then induced according to the conditions described in the methodology section, the culture supernatants were collected, and the various inflammatory mediators were quantified by the ELISA technique. […]
(In general: ELISA stands for enzyme-linked immunosorbent assay.)

Another experiment concerns PGE2. In words: PGE2 production by NHEKs in the inflammatory state (PMA), ELISA. In kind it is cell-based, human. The following applies: PMA 10 ng/ml 24 h, compounds 50 μM, indomethacin 10 μg/ml, relative to PMA induced control (100%). The method, then:
as §1
For the quantification of IL-8 and PGE2, the inflammatory state of the NHEKs in culture was induced by treatment with PMA (phorbol myristate acetate/10 ng/ml/H2O) for 24 h. Induction of IL-6 was achieved by treatment with PMA (10 ng/ml/H2O) combined with calcium ionophore A23187 (2 μM/DMSO) in medium containing calcium at a concentration of 0.8 mM. TNF-α secretion was induced by a combination of PMA (10 ng/ml/H2O) and calcium ionophore A23187 (2 μM/DMSO) applied for 24 h (TNF-α) in medium containing 0.06 mM calcium. The reference molecules used are dexamethasone (10 μM/H2O) and indomethacin (10 μg/ml/ethanol).
(§3) The effect of the compounds was studied by applying them to the keratinocyte culture medium 2 h prior to induction of the inflammatory state as well as during induction (2 h for LTB4, 24 h for IL-8, PGE2, IL-6 and TNF-α).
(§4) Each condition was carried out in triplicate cultures and the supernatants were recovered at the end of the various treatments.
as §2
(§5) Before induction of the inflammatory state, the NHEKs were treated with the compounds and reference molecules for 2 h. The inflammatory state was then induced according to the conditions described in the methodology section, the culture supernatants were collected, and the various inflammatory mediators were quantified by the ELISA technique.
The effect of the compounds on PGE2 production is presented in FIG. 5 and is expressed as a percentage of the PMA treatment set at 100%.

The next experiment has as its system LTB4. In words: LTB4 production by NHEKs in the inflammatory state (arachidonic acid + calcium ionophore), ELISA. Type of experiment: cell-based, human. The following applies: arachidonic acid 1 μM + calcium ionophore A23187 2 h, compounds 50 μM, NDGA 2 μM, relative to induced control. The protocol: as §1
The induction of LTB4 production having a very fast kinetics, the scheme was adapted. In this case, the inflammatory state was induced for 2 h by applying arachidonic acid (a.a./1 μM/ethanol) combined with calcium ionophore A23187 (2 μM/DMSO). Nordihydroguaiaretic acid (NDGA) was used as reference molecule (2 μM/ethanol).
as §3, §4, §2, §5
The effects of the compounds on LTB4 production are shown in FIG. 8 and are expressed as a percentage of the treatment with arachidonic acid (a.a.) combined with calcium ionophore A23187 set at 100%.

Experiment [1] deals with Normal Human Epidermal Keratinocytes (NHEKs). In words: Microscopic observation of NHEK cell survival 48 h after inflammatory treatment. Type of experiment: cell-based. The method, then: The cells, treated and not treated by the compounds to be tested, were observed under an optical microscope 48 h after the following inflammatory treatment: 10 ng/mL PMA/H2O+2 μM calcium ionophore A23187/DMSO.
NHEKs were brought into contact or not with the compounds to be tested. After 2 h, the cells underwent or not an inflammation treatment (10 ng/mL PMA/H2O+2 μM calcium ionophore A23187/DMSO).
The cells were observed under an optical microscope 48 h after the inflammatory treatment.

For a further experiment, the system named is IL-6. The experiment in a line: IL-6 production by NHEKs in the inflammatory state (PMA + calcium ionophore, 0.8 mM Ca2+), ELISA. In kind it is cell-based, human. Conditions: PMA + calcium ionophore A23187, 0.8 mM Ca2+, compounds 50 μM, dexamethasone 10 μM, relative to induced control. The protocol:
as §1
For the quantification of IL-8 and PGE2, the inflammatory state of the NHEKs in culture was induced by treatment with PMA (phorbol myristate acetate/10 ng/ml/H2O) for 24 h. […]
as §2, §5
The effect of the compounds on IL-6 production by NHEKs in the inflammatory state is shown in FIG. 6 and is expressed as a percentage of the treatment with PMA combined with calcium ionophore A23187 (under high-calcium conditions: 0.8 mM Ca2+).

Consider `CCCCCCCCNC(=O)[C@]1(O)C[C@@H](OC(=O)/C=C/c2ccc(O)c(O)c2)[C@@H](O)[C@H](OC(=O)/C=C/c2ccc(O)c(O)c2)C1` [PAT1657, (2E,2′E)-((1R,2S,3R,5S)-2,5-dihydroxy-5-(octylcarbamoyl)cyclohexane-1,3-diyl) bis(3-(3,4-dihydroxyphenyl)acrylate)], for which the IL-8 production entry with IL-8 was “inhibit/reduce IL-8 production to the baseline level”. For the same compound, in the experiment with PGE2, the PGE2 production entry was “very highly significantly decrease”. Further, the LTB4 production result in the experiment on LTB4 was “block/decrease, in a very highly significant manner”. Moreover, in experiment [1] (NHEK cultures 48 h after inflammatory treatment (10 ng/mL PMA + 2 μM calcium ionophore A23187), microscopic observation), the “Result at 48 h: cell survival” value is listed as “Confluent culture: 100%”. Also, in experiment [1] (NHEK cultures 48 h after inflammatory treatment, summary in words), the “effect on cell survival / cellular protection against inflammation” value is “strong cellular protection against inflammation”. Also, the IL-6 production entry in the experiment with IL-6 was “largest decreases and are more effective than dexamethasone itself”.
